From BigSolDB 2.1

COC(=O)c1cc(O)c(O)c(O)c1
solubility (mole fraction)
Details | in acetone | in ethanol | in ethyl acetate | in isobutanol | in isopropanol | in methanol | in methyl acetate | in n-butanol | in n-propanol
293.15 K | 0.0929 | 0.0706 | 0.0217 | 0.02 | 0.0505 | 0.0812 | 0.0266 | 0.0354 | 0.0425
298.15 K | 0.099 | 0.0758 | 0.0247 | 0.0231 | 0.0556 | 0.0864 | 0.0305 | 0.0398 | 0.0475
303.15 K | 0.106 | 0.0819 | 0.0283 | 0.0266 | 0.0625 | 0.0931 | 0.0348 | 0.0446 | 0.053
308.15 K | 0.113 | 0.0881 | 0.0324 | 0.0306 | 0.0677 | 0.1 | 0.0396 | 0.0499 | 0.0582
313.15 K | 0.121 | 0.0955 | 0.0372 | 0.0351 | 0.0747 | 0.107 | 0.045 | 0.0557 | 0.0646
318.15 K | 0.13 | 0.103 | 0.0425 | 0.0403 | 0.0819 | 0.115 | 0.0509 | 0.0621 | 0.0713
323.15 K | 0.139 | 0.11 | 0.0487 | 0.0462 | 0.0902 | 0.123 | 0.0573 | 0.069 | 0.0783
328.15 K | 0.15 | 0.119 | 0.055 | 0.0528 | 0.0991 | 0.134 | 0.0643 | 0.0766 | 0.0864
333.15 K | 0.161 | 0.128 | 0.0621 | 0.0603 | 0.107 | 0.143 | 0.0718 | 0.0847 | 0.0957
